Measurements published in PMC11096667 (Cell reports, 2024).

What was measured:
[1] = tested on: TRPM7; settings: cited from earlier work
[2] = tested on: TRPM6; settings: cited from earlier work
[3] = target: the molecule itself; assay: cryo-EM structure

Row | Molecule | inhibition of TRPM7 [1] | inhibition of TRPM6 [2] | activity against TRPM6 [2] | stoichiometry N [3]
1 | c1ccc2c(c1)CCC[C@H]2Nc1nc2ccccc2[nH]1 [NS8593] | inhibits | inhibits | – | –
2 | N#Cc1ccc(COC[C@H]2O[C@@H](n3c(NCc4ccc(Cl)c(Cl)c4)nc4c(N)ncnc43)[C@H](O)[C@@H]2O)cc1 [VER155008] | potent inhibitor | – | inactive | –
3 | C-terminally truncated mouse TRPM7 (residues 1-1280) (domain or fragment, UniProt Q923J1 1-1280, looked up) MSQKSWIESTLTKRECVYIIPSSKDPHRCLPGCQICQQLVRCFCGRLVKQHACFTASLAMKYSDVKLGEHFNQAIEEWSVEKHTEQSPTDAYGVINFQGGSHSYRAKYVRLSYDTKPEIILQLLLKEWQMELPKLVISVHGGMQKFELHPRIKQLLGKGLIKAAVTTGAWILTGGVNTGVAKHVGDALKEHASRSSRKICTIGIAPWGVIENRNDLVGRDVVAPYQTLLNPLSKLNVLNNLHSHFILVDDGTVGKYGAEVRLRRELEKTINQQRIHARIGQGVPVVALIFEGGPNVILTVLEYLQESPPVPVVVCEGTGRAADLLAYIHKQTEEGGNLPDAAEPDIISTIKKTFNFGQSEAVHLFQTMMECMKKKELITVFHIGSEDHQDIDVAILTALLKGTNASAFDQLILTLAWDRVDIAKNHVFVYGQQWLVGSLEQAMLDALVMDRVSFVKLLIENGVSMHKFLTIPRLEELYNTKQGPTNPMLFHLIRDVKQGNLPPGYKITLIDIGLVIEYLMGGTYRCTYTRKRFRLIYNSLGGNNRRSGRNTSSSTPQLRKSHETFGNRADKKEKMRHNHFIKTAQPYRPKMDASMEEGKKKRTKDEIVDIDDPETKRFPYPLNELLIWACLMKRQVMARFLWQHGEESMAKALVACKIYRSMAYEAKQSDLVDDTSEELKQYSNDFGQLAVELLEQSFRQDETMAMKLLTYELKNWSNSTCLKLAVSSRLRPFVAHTCTQMLLSDMWMGRLNMRKNSWYKVILSILVPPAILMLEYKTKAEMSHIPQSQDAHQMTMEDSENNFHNITEEIPMEVFKEVKILDSSDGKNEMEIHIKSKKLPITRKFYAFYHAPIVKFWFNTLAYLGFLMLYTFVVLVKMEQLPSVQEWIVIAYIFTYAIEKVREVFMSEAGKISQKIKVWFSDYFNVSDTIAIISFFVGFGLRFGAKWNYINAYDNHVFVAGRLIYCLNIIFWYVRLLDFLAVNQQAGPYVMMIGKMVANMFYIVVIMALVLLSFGVPRKAILYPHEEPSWSLAKDIVFHPYWMIFGEVYAYEIDVCANDSTLPTICGPGTWLTPFLQAVYLFVQYIIMVNLLIAFFNNVYLQVKAISNIVWKYQRYHFIMAYHEKPVLPPPLIILSHIVSLFCCVCKRRKKDKTSDGPKLFLTEEDQKKLHDFEEQCVEMYFDEKDDKFNSGSEERIRVTFERVEQMSIQIKEVGDRVNYIKRSLQSLDSQIGHLQDLSALTVDTLKTLTAQKASEASKVHNEITRELSISKHLAQNLID | – | – | – | 4
